In data set [1] the test system is human Factor 7 mRNA. Kind of data set: Antisense inhibition of human Factor 7 mRNA in HepB3 cells, lipofectin, 50 nM, real-time RT-PCR. The following applies: HepB3 cells. It is filed as cell-based. The method in brief:
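Cells plated at 4,000 per well were transfected and harvested after approximately 24 hours of treatment. Transcript levels, measured with primer probe set RTS 2927, were normalised to total RNA by RIBOGREEN®. Values are percent inhibition relative to untreated control cells.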

For data set [2], the system named is human Factor 7 mRNA. The data set can be described thus: Dose-dependent antisense inhibition of human Factor 7 in HepB3 cells, transfection with lipofectin. It is filed as cell-based. The settings on record: HepB3, lipofectin, ~16 h. The method, then:
Cells were plated at a density of 4,000 cells per well and treated with lipofectin reagent with 3.125 nM, 6.25 nM, 12.5 nM, 25 nM, 50 nM, and 100 nM concentrations of antisense oligonucleotide, as indicated in Table 3. After a treatment period of approximately 16 hours, RNA was isolated from the cells and Factor 7 mRNA levels were measured by real-time RT-PCR, as described herein. Human Factor 7 primer probe set RTS 2927 (forward sequence: […], incorporated herein as SEQ ID NO: 164; reverse sequence: […], incorporated herein as SEQ ID NO: 165; probe sequence: TGGGTGGTCTCCGCGGCCX, incorporated herein as SEQ ID NO: 166) was used to measure mRNA levels. Factor 7 mRNA levels were adjusted according to total RNA content as measured by RIBOGREEN®. Results are presented as percent inhibition of Factor 7, relative to untreated control cells.
Cells were plated at a density of 4,000 cells per well and transfected using lipofectin reagent with 6.25 nM, 12.5 nM, 25.0 nM, 50.0 nM, and 100.0 nM concentrations of antisense oligonucleotide, as indicated in Table 7. After a treatment period of approximately 16 hours, RNA was isolated from the cells and Factor 7 mRNA levels were measured by real-time RT-PCR, as described herein. Human Factor 7 primer probe set RTS 2927 was used to measure mRNA levels. Factor 7 mRNA levels were adjusted according to total RNA content as measured by RIBOGREEN®. Results are presented as percent inhibition of Factor 7, relative to untreated control cells.
Cells were plated at a density of 4,000 cells per well and transfected using lipofectin reagent with 3.125 nM, 6.25 nM, 12.5 nM, 25 nM, 50 nM, and 100 nM concentrations of antisense oligonucleotide, as specified in Table 14. After a treatment period of approximately 16 hours, RNA was isolated from the cells and Factor 7 mRNA levels were measured by quantitative real-time PCR. Human Factor 7 primer probe set RTS 2927 was used to measure mRNA levels. Factor 7 mRNA levels were adjusted according to total RNA content, as measured by RIBOGREEN®. Results are presented as percent inhibition of Factor 7, relative to untreated control cells.

[3] abbreviates: lipofectin, 50 nM antisense oligonucleotide, approximately 24 hours, primer probe set RTS 2927, relative to untreated control.

In the oligonucleotide strings, read from the 5' end, every base follows the letter of its sugar. An asterisk marks phosphorothioate; unmarked linkages are phosphodiester. Other units and linkages are bracketed, terminal groups are in braces. A string of capitals states the bases alone. e = 2'-O-(2-methoxyethyl) (MOE); [5mC] = 5-methylcytosine; d = 2'-deoxy (DNA)

With “416472 (antisense e[5mC]*eA*eG*e[5mC]*e[5mC]*dT*dT*dG*dG*d[5mC]*dT*dT*dT*d[5mC]*dT*e[5mC]*eT*e[5mC]*e[5mC]*eA) [compound 416472]”, in the data set on human Factor 7 mRNA [1] (setting [3]), the “% Inhibition of human Factor 7 mRNA levels” value is 76%. Also, in the data set on human Factor 7 mRNA [2] (Example 5), the “percent inhibition of Factor 7 mRNA, 6.25 nM” value (from here on “percent inhibition … 6.25 nM”) came to 16%; the “percent inhibition of Factor 7 mRNA, 12.5 nM” value (“percent inhibition … 12.5 nM” for short) worked out at 44%; the “percent inhibition of Factor 7 mRNA, 25.0 nM” value (“percent inhibition … 25.0 nM” for short) is 64%; the “percent inhibition of Factor 7 mRNA, 50.0 nM” value (“percent inhibition … 50.0 nM” for short) is given as 80%. In addition, the “percent inhibition of Factor 7 mRNA, 100.0 nM” value (“percent inhibition … 100.0 nM” for short) in the data set with human Factor 7 mRNA [2] (Example 5) is 88%.
For the substance “416507 (antisense eG*eG*eT*eT*eA*d[5mC]*dT*dG*dA*dG*d[5mC]*dG*d[5mC]*dG*dG*eA*eA*eG*eA*eA) [compound 416507]”, in the data set with human Factor 7 mRNA [1] (setting [3]), the “% Inhibition of human Factor 7 mRNA levels” value came out at 73%. Further, in the data set with human Factor 7 mRNA [2] (Example 5), the “percent inhibition … 6.25 nM” value turned out to be 30%; the “percent inhibition … 12.5 nM” value amounted to 53%; the “percent inhibition … 25.0 nM” value amounted to 70%; the “percent inhibition … 50.0 nM” value amounted to 77%. Besides, the “percent inhibition … 100.0 nM” value with human Factor 7 mRNA [2] (Example 5) is 72%.
Turning to “416455 (antisense e[5mC]*eG*e[5mC]*e[5mC]*eG*dG*d[5mC]*dT*d[5mC]*dT*dG*d[5mC]*dT*d[5mC]*dA*eT*e[5mC]*e[5mC]*e[5mC]*e[5mC]) [compound 416455]”, the “% Inhibition of human Factor 7 mRNA levels” value with human Factor 7 mRNA [1] (setting [3]) was found to be 72%. Besides, in the data set with human Factor 7 mRNA [1] (gapmers targeted to nucleobases 13760 to 13789 of SEQ ID NO: 1 (Table 10)), the “% Inhibition of human Factor 7 mRNA levels” value turned out to be 51%. In addition, in the data set on human Factor 7 mRNA [2] (Example 5), the “percent inhibition … 6.25 nM” value is 28%; the “percent inhibition … 12.5 nM” value turned out to be 44%; the “percent inhibition … 25.0 nM” value amounted to 64%; the “percent inhibition … 50.0 nM” value turned out to be 78%. Besides, in the data set on human Factor 7 mRNA [2] (Example 5), the “percent inhibition … 100.0 nM” value is given as 87%.
For the substance “416438 (antisense e[5mC]*eA*eG*eG*eA*dG*d[5mC]*d[5mC]*d[5mC]*d[5mC]*d[5mC]*dA*dT*dT*d[5mC]*eT*eG*eG*e[5mC]*eA) [compound 416438]”, the “% Inhibition of human Factor 7 mRNA levels” value in the data set on human Factor 7 mRNA [1] (setting [3]) is 63%. In the data set with human Factor 7 mRNA [2] (Example 5), the “percent inhibition … 6.25 nM” value stood at 11%; the “percent inhibition … 12.5 nM” value came to 33%; the “percent inhibition … 25.0 nM” value is listed as 56%; the “percent inhibition … 50.0 nM” value came out at 75%. Besides, in the data set on human Factor 7 mRNA [2] (Example 5), the “percent inhibition … 100.0 nM” value is given as 82%.
For the substance “416549 (antisense eG*eA*e[5mC]*eA*eA*dT*dG*dG*dT*d[5mC]*dA*dG*dG*dG*d[5mC]*eT*eG*eG*eT*eT) [compound 416549]”, the “% Inhibition of human Factor 7 mRNA levels” value with human Factor 7 mRNA [1] (setting [3]) was determined as 68%. The “% Inhibition of human Factor 7 mRNA levels” value in the data set with human Factor 7 mRNA [1] (gapmers targeted to nucleobases 11830 to 11869 of SEQ ID NO: 1 (Table 9)) was determined as 69%. Moreover, in the data set on human Factor 7 mRNA [2] (Example 5), the “percent inhibition … 6.25 nM” value is 38%; the “percent inhibition … 12.5 nM” value worked out at 44%; the “percent inhibition … 25.0 nM” value was 63%; the “percent inhibition … 50.0 nM” value came out at 73%. Further, in the data set on human Factor 7 mRNA [2] (Example 5), the “percent inhibition … 100.0 nM” value is given as 78%.
With “407936 (antisense eG*eG*e[5mC]*eA*eT*dT*d[5mC]*dG*d[5mC]*d[5mC]*dA*d[5mC]*d[5mC]*dA*dT*eG*e[5mC]*eA*eT*eG) [compound 407936]”, the “% Inhibition (human Factor 7 mRNA)” value in the data set on human Factor 7 mRNA [1] (Example 1, lipofectin, 50 nM, ~24 h, relative to untreated control cells) was 91%. In the data set with human Factor 7 mRNA [2] (Example 2, 3.125 nM), the “percent inhibition of Factor 7 mRNA, 3.125 nM” value amounted to 45%. In the data set on human Factor 7 mRNA [2] (Example 2), the “percent inhibition … 6.25 nM” value is given as 77%; the “percent inhibition … 12.5 nM” value was determined as 79%; the “percent inhibition … 25.0 nM” value came to 86%; the “percent inhibition … 50.0 nM” value was 91%. The “percent inhibition … 100.0 nM” value with human Factor 7 mRNA [2] (Example 2) is 90%.
For “416446 (antisense eG*eG*eT*e[5mC]*eA*d[5mC]*dT*dG*d[5mC]*dA*dG*dT*dA*d[5mC]*dT*eG*e[5mC]*eT*e[5mC]*eA) [compound 416446]”, the “% Inhibition of human Factor 7 mRNA levels” value in the data set on human Factor 7 mRNA [1] (setting [3]) worked out at 64%. Further, in the data set on human Factor 7 mRNA [2] (Example 5), the “percent inhibition … 6.25 nM” value came to 25%; the “percent inhibition … 12.5 nM” value came out at 24%; the “percent inhibition … 25.0 nM” value came out at 50%; the “percent inhibition … 50.0 nM” value came to 69%. The “percent inhibition … 100.0 nM” value with human Factor 7 mRNA [2] (Example 5) was determined as 64%.

Values taken from patent US20120214862A1, “MODULATION OF FACTOR 7 EXPRESSION” (ISIS Pharmaceuticals, Inc., priority 2009, published 2012).
